Measurements from PubChem BioAssay (NCI).
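Test compounds were applied to cells in 96-well plates for 48 hours at 5 doses. The concentration for 50% growth inhibition is given as GI50. TGI marks complete inhibition of growth.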

How the values were obtained:
Experiment in all cases: inhibition of tumour cell growth, NCI panel, 48 h
[1] = test system: UACC-62 melanoma
[2] = test system: RPMI-8226 leukemia
[3] = test system: UO-31 renal
[4] = test system: NCI-H226 lung
[5] = test system: HOP-62 NSCLC
[6] = test system: SR leukemia
[7] = test system: SN12C renal
[8] = test system: KM12 colon
[9] = test system: TK-10 renal
[10] = test system: SF-539 CNS

## Fc1ccc(-c2nn3ccccc3c2-c2ccncc2)cc1
[1]
  GI50: > 18900 nM
  TGI: > 25 µM
[2]
  GI50: > 25000 nM
  TGI: > 25 µM
[3]
  GI50: 8260 nM
  TGI: > 25 µM
[4]
  GI50: > 25 µM
  TGI: > 25 µM
[5]
  GI50: > 25000 nM
  TGI: > 25 µM
[6]
  GI50: > 25000 nM
  TGI: > 25 µM
[7]
  GI50: > 25000 nM
  TGI: > 25 µM
[8]
  GI50: > 25000 nM
  TGI: > 25 µM
[9]
  GI50: 12 µM
  TGI: > 25 µM
[10]
  GI50: > 25000 nM
  TGI: > 25 µM

## O=C1Cc2cc(CCn3cncn3)c(Cl)cc2N1
[1]
  GI50: 20700 nM
  TGI: > 100 µM
[2]
  GI50: > 100000 nM
  TGI: > 100 µM
[3]
  GI50: > 100000 nM
  TGI: > 100 µM
[4]
  GI50: > 100 µM
  TGI: > 100 µM
[5]
  GI50: 29900 nM
  TGI: > 100 µM
[6]
  GI50: 11800 nM
  TGI: > 100 µM
[7]
  GI50: > 100000 nM
  TGI: > 100 µM
[8]
  GI50: 5420 nM
  TGI: > 100 µM
[9]
  GI50: > 100 µM
  TGI: > 100 µM
[10]
  GI50: > 100000 nM
  TGI: > 100 µM

## CCC(=O)N1C/C(=C/c2ccc(Br)cc2)C(=O)/C(=C/c2ccc(Br)cc2)C1
[1]
  GI50: 724 nM
  TGI: 2.06 µM
[2]
  GI50: < 49.7 nM
[3]
  GI50: 607 nM
  TGI: 1.5 µM
[4]
  GI50: 1.13 µM
  TGI: 4.38 µM
[5]
  GI50: 259 nM
  TGI: 0.829 µM
[6]
  TGI: 1.02 µM
[7]
  GI50: 424 nM
  TGI: 1.58 µM
[8]
  GI50: 186 nM
  TGI: 0.553 µM
[9]
  GI50: 0.357 µM
  TGI: 1.28 µM
[10]
  GI50: 706 nM
  TGI: 1.79 µM

## Cn1c(=O)c(Oc2ccc(F)cc2F)cc2cnc(N[C@@H]3CCOC3)nc21
[1]
  GI50: > 25000 nM
  TGI: > 25 µM
[2]
  GI50: > 25000 nM
  TGI: > 25 µM
[3]
  GI50: > 11000 nM
  TGI: > 16.2 µM
[4]
  GI50: > 25 µM
  TGI: > 25 µM
[5]
  GI50: > 25000 nM
  TGI: > 25 µM
[6]
  GI50: > 25000 nM
  TGI: > 25 µM
[7]
  GI50: > 25000 nM
  TGI: > 25 µM
[8]
  GI50: > 25000 nM
  TGI: > 25 µM
[9]
  GI50: > 25 µM
  TGI: > 25 µM
[10]
  GI50: > 25000 nM
  TGI: > 25 µM

## O=C(Nc1ccccc1)OC1OC(COC(=O)c2ccccc2)C(OC(=O)c2ccccc2)C1OS(=O)(=O)c1ccc([N+](=O)[O-])cc1 (stereo unspecified)
[1]
  TGI: > 100 µM
[2]
  TGI: > 100 µM
[3]
  TGI: > 100 µM
[4]
  TGI: > 100 µM
[5]
  TGI: > 100 µM
[6]
  TGI: > 100 µM
[7]
  TGI: > 100 µM
[8]
  TGI: > 100 µM
[9]
  TGI: > 100 µM
[10]
  TGI: > 100 µM

## O=C(Nc1cc(Cl)ccc1O)c1cccc(Nc2ccnc(C(F)(F)F)c2)c1
[1]
  GI50: 901 nM
  TGI: 11.9 µM
[2]
  GI50: 822 nM
  TGI: 4.04 µM
[3]
  GI50: 2300 nM
  TGI: 11.3 µM
[4]
  GI50: 4.84 µM
  TGI: 39.5 µM
[5]
  GI50: 4400 nM
  TGI: 23.5 µM
[6]
  GI50: 811 nM
  TGI: 15.2 µM
[7]
  GI50: 3360 nM
  TGI: 25.5 µM
[8]
  GI50: 3680 nM
  TGI: 14.4 µM
[9]
  GI50: 4.51 µM
  TGI: 19.8 µM
[10]
  GI50: 2070 nM
  TGI: 15 µM

## O=C(Nc1cc(F)c(F)cc1C(=O)O)c1ccc(-n2ccnc2)nn1
[1]
  GI50: > 100000 nM
  TGI: > 100 µM
[2]
  GI50: > 100000 nM
  TGI: > 100 µM
[3]
  GI50: > 100000 nM
  TGI: > 100 µM
[4]
  GI50: > 100 µM
  TGI: > 100 µM
[5]
  GI50: > 100000 nM
  TGI: > 100 µM
[6]
  GI50: 27900 nM
  TGI: > 100 µM
[7]
  GI50: > 100000 nM
  TGI: > 100 µM
[8]
  GI50: > 100000 nM
  TGI: > 100 µM
[9]
  GI50: > 100 µM
  TGI: > 100 µM
[10]
  GI50: 34400 nM
  TGI: > 100 µM

## Clc1cccc(CNc2c3ccccc3nc3ccccc23)c1
[1]
  GI50: 1870 nM
  TGI: 3.98 µM
[2]
  GI50: 1740 nM
  TGI: 4.18 µM
[3]
  GI50: 1140 nM
  TGI: 3.13 µM
[4]
  GI50: 2.22 µM
  TGI: 6.24 µM
[5]
  GI50: 2770 nM
  TGI: 12.4 µM
[6]
  GI50: 1470 nM
  TGI: 4.55 µM
[7]
  GI50: 2360 nM
  TGI: 11 µM
[8]
  GI50: 2490 nM
  TGI: 7.7 µM
[9]
  GI50: 2.95 µM
  TGI: 8.99 µM
[10]
  GI50: 1780 nM
  TGI: 3.32 µM

## COc1ccc(-c2cc(-c3ccc(Cl)cc3)nc(NCCCCNc3ccnc4cc(Cl)ccc34)n2)cc1
[1]
  GI50: 17800 nM
  TGI: 35.8 µM
[2]
  GI50: 2140 nM
  TGI: 5.66 µM
[3]
  GI50: 1830 nM
  TGI: 12.7 µM
[4]
  GI50: 31.8 µM
  TGI: > 100 µM
[5]
  GI50: 1690 nM
  TGI: 3.44 µM
[6]
  GI50: 708 nM
  TGI: > 100 µM
[7]
  GI50: 1500 nM
  TGI: 3.18 µM
[8]
  GI50: 1900 nM
  TGI: 3.72 µM
[9]
  GI50: 3.95 µM
  TGI: 13.3 µM
[10]
  GI50: 6800 nM
  TGI: 20.9 µM

## COc1ccc(C(=O)c2cc3c(N)c(C(=O)Nc4cccc(Br)c4C)sc3nc2C)cc1
[1]
  GI50: 45.6 nM
  TGI: > 100 µM
[2]
  GI50: 37 nM
[3]
  GI50: 219 nM
  TGI: > 100 µM
[4]
  GI50: 0.173 µM
  TGI: > 100 µM
[5]
  GI50: 72.9 nM
  TGI: > 100 µM
[6]
  GI50: 35.4 nM
[7]
  GI50: 84.4 nM
  TGI: > 100 µM
[8]
  GI50: 68.4 nM
  TGI: > 36.3 µM
[9]
  GI50: 36.4 µM
  TGI: > 100 µM
[10]
  GI50: 25.6 nM
  TGI: 0.0809 µM

## CCCc1nc(Cl)c(Cl)c(Cl)n1
[1]
  TGI: > 100 µM
[2]
  TGI: 3.94 µM
[3]
  TGI: 5.61 µM
[4]
  TGI: > 94.6 µM
[5]
  TGI: > 83.4 µM
[6]
  TGI: > 50.7 µM
[7]
  TGI: > 31.6 µM
[8]
  TGI: > 100 µM
[9]
  TGI: > 100 µM
[10]
  TGI: 68.6 µM
